For 68 compounds, logD results are on record in ChEMBL document CHEMBL3301361, “Experimental in vitro DMPK and physicochemical data on a set of publicly disclosed compounds”.

The logD is the decadic logarithm of the distribution of all forms, ionised or not, between an organic phase and buffer at a given pH. Lower therefore signals lower lipophilicity.

The nature of this data set: physchem. The following applies: octan-1-ol/water, pH 7.4, LogD7.4.

Consider `O=C(NCC12CC3CC(CC(C3)C1)C2)c1ccccc1`, for which the logD came to 4.21.

`CC(=N)NCc1ccccc1` had a logD of -0.28.

For `O=c1[nH]n(Cc2ccncc2)c(=O)c2c(=O)c3ccc(Cl)cc3[nH]c12`, the logD is -0.16.

`O=S(=O)(NCC(c1ccccc1)N1CCCCCC1)c1ccc(C(F)(F)F)cc1` (stereo not drawn) gave a logD of 4.29.

In turn, `Cc1nnc(N)s1` displayed a logD of -0.4.

`Fc1ccc(C2CCN(C(=S)COCc3ccncc3)CC2)c(Cl)c1` had a logD of 4.23.

In turn, `O=S(=O)(Nc1ccc2[nH]c(-c3ccc(Br)o3)nc2c1)c1ccccc1` displayed a logD of 4.38.

In turn, `CCN(c1ccccc1)c1cc(NC)[n+](C)c(C)n1` came in with a logD of -0.91.

Regarding `Cc1c(CCC(=O)O)c(=O)oc2cc(O)ccc12`, the logD is -0.7.

As to `CC(=O)Nc1nc(N)n(-c2ccccc2)n1`, the logD is -0.2.

In turn, `O=C(Oc1ccccc1O)c1cccc2ccccc12` displayed a logD of 4.4.

`N=C(N)Nc1ccc(C(=O)Oc2ccccc2)cc1` returned a logD of -0.21.

For the compound `Nc1nc(-c2ccccc2)nc2c1nc(O)n2Cc1ccccc1`, the logD was found to be 4.16.

In turn, `CC(c1ccccc1)C(Cc1nc2ccccc2[nH]1)c1nc2ccccc2[nH]1` (stereo not drawn) returned a logD of 4.48.

For the compound `CC(C)(C)c1cc(O)n2nc(N)nc2n1`, the logD is -0.2.

For `Cc1ccc(OCC(=O)O)c(-n2nc3ccccc3n2)c1`, the pH-dependent lipophilicity (logD) was -0.84.

For the compound `O=C(Nc1ccccc1)Nc1ccccc1C(=O)O`, the pH-dependent lipophilicity (logD) was -0.12.

In turn, `Oc1cc(-c2ccccc2)nc2ncnn12` registered a logD of -0.21.

The compound `Cc1cc(NC(=O)Nc2ccc(Cl)cc2)n(-c2ccccc2)n1` showed a logD of 4.15.

In the case of `Cc1ccc(CO)cc1N(C)c1ccnc(Nc2cc(N3CCCCC3)cc(N3CCOCC3)c2)n1`, the logD was determined as 4.2.

Compound `COC[C@H](C)Oc1cc(Oc2ccc(S(C)(=O)=O)cc2)cc(C(=O)Nc2ccc(C(=O)O)cn2)c1` returned a logD of -0.41.

In the case of `CCS(=O)(=O)c1ccc(-c2cc(C(F)(F)F)ccc2O[C@H](C)C(=O)O)c(C)c1`, the logD is -0.4.

With `COc1cc(N2CCN(C(C)=O)CC2)ccc1Nc1ncc(Cl)c(-c2cnc3cc(Cl)ccn23)n1`, the logD was determined as 4.2.

`CC(=O)Nc1cccc(Nc2ncnc(N3CCC(OCc4ccc(OC(F)(F)F)cc4)CC3)n2)c1C` came in with a logD of 4.4.

For `CCC(c1nc2ncccc2c(=O)n1Cc1ccccc1)N(CCCN)C(=O)c1ccc(C)cc1` (stereo not drawn), the logD was -0.04.

For the compound `CCC(NC(=O)c1ccc(C)cc1)c1nc2ccsc2c(=O)n1Cc1ccccc1` (stereo not drawn), the logD turned out to be 4.14.

`CN1CCN(CCCOc2ccc(-c3cc(-c4ccc(F)cc4)no3)cc2)CC1` showed a logD of 3.81.

Compound `COc1cc2ncnc(Nc3cc(NC(=O)c4cccc(N(C)C)c4)ccc3Cl)c2cc1OC` displayed a logD of 4.26.

The compound `Cc1c(CCC(=O)O)c(=O)oc2c(C)c(O)ccc12` yielded a logD of -0.3.

As for `CNC(=O)c1cnn(-c2ccccc2)c1NS(=O)(=O)c1ccc(C)cc1`, the logD was -0.54.

Consider `COc1ncc2ncc(=O)n(CCN3CCC(NCc4cc5c(cn4)OCCO5)CC3)c2n1`, for which the logD was -0.14.

In turn, `C[C@H]1O[C@@H](n2cnc3c(N)nc(OC4CCOC4)nc32)[C@H](O)[C@@H]1O` (stereo partly drawn) came in with a logD of -0.06.

`COCCNCc1ccc(CCNC[C@H](O)c2ccc(O)c3[nH]c(=O)sc23)cc1`: the logD is -0.54.

For the compound `CN[C@@H](C)C(=O)N[C@H](C(=O)N[C@H]1CCCN(CCc2ccccn2)C1)C(C)(C)C`, the logD was -0.55.

As to `N=C(N)NC(=O)c1nc(Cl)c(NCc2ccncc2)nc1N`, the logD is -0.51.

The compound `N=C(N)NC(=O)c1nc(Cl)c(NCc2ccccn2)nc1N` had a logD of -0.56.

`O=C(NS(=O)(=O)c1ccc(NCCSc2ccccc2)c([N+](=O)[O-])c1)c1ccc(N2CCNCC2)cc1` displayed a log distribution coefficient (logD) of -0.04.

For the compound `O=C(N[C@@H](Cc1ccc(OCCNc2ccccn2)cc1)C(=O)O)c1c(Cl)cccc1Cl`, the logD was -0.48.

For the compound `O=C(Cc1ccc2c(n1)NCCC2)Nc1ccc(C[C@H](NC(=O)c2c(Cl)cccc2Cl)C(=O)O)cc1`, the logD was -0.63.

As to `CC(=O)Nc1ccc2c(c1)c(-c1cc(NC3CC3)n3ncc(C#N)c3n1)cn2CCC(=O)O`, the logD was -0.87.

In turn, `COc1ncc(-c2cccc3c2C[C@H](NC(=O)c2ccc(OCC(F)(F)F)nc2)CO3)cn1` yielded a logD of 4.3.

For the compound `Cc1oc(C#N)cc1-c1c2c(=O)n(C)c(=O)n(CC3CC3)c2nn1Cc1ccnc2ccc(Cl)cc12`, the logD turned out to be 4.26.

`Cn1cncc1-c1c2c(=O)n(CC3CC3)c(=O)n(CC3CC3)c2nn1Cc1ccnc2ccc(Cl)cc12` displayed a pH-dependent lipophilicity (logD) of 4.33.

The compound `C=CCn1c(=O)c2c(-c3cc(C#N)cn3C)n(Cc3ccnc4ccc(Cl)cc34)nc2n(CC2CC2)c1=O` showed a logD of 4.27.

As to `COc1c(N2CCO[C@@H](CN(C)C)C2)c(F)cc2c(=O)c(C(=O)O)cn(C3CC3)c12`, the logD is -0.62.

In turn, `CC#Cc1ccnc(-c2cccc([C@@]3(c4cc(C)c(=O)n(CC)c4)N=C(N)c4c(F)cccc43)c2)c1` returned a logD of 4.4.

In the case of `CC(C)N(C(=O)C(c1cccnc1)C(CNC(=O)NCc1ccccc1F)c1ccccc1)C(C)C` (stereo not drawn), the logD amounted to 4.2.

`Nc1nnc(CCSCCc2nnc(N)s2)s1` showed a logD of -0.1.

In the case of `O=C(NCCCNc1nc(Nc2cccc(NC(=O)N3CCCC3)c2)ncc1Br)c1cccs1`, the logD amounted to 4.13.

For the compound `CC(C)c1ccccc1Nc1nnc(SCc2cccs2)[nH]1`, the log distribution coefficient (logD) is 4.21.

In turn, `Nc1nc2cc3c(cc2s1)CCN(Cc1cnc[nH]1)CC3` registered a logD of -0.12.

`Cc1cn([C@H]2CCCN(S(=O)(=O)c3ccc(C(=O)O)c(Oc4ccc(Cl)c(Cl)c4)c3)C2)c(=O)[nH]c1=O` registered a logD of -0.87.

Take `CC(C)C[C@H](CO)Nc1nc(SCc2ccccc2F)nc2nc(N)sc12`: the logD is 4.5.

In the case of `CC(C)(C)c1ccc(-c2n[nH]c(NC(=O)c3ccccc3Cl)c2Br)cc1`, the logD amounted to 4.3.

`Cc1cccc(Br)c1C(=O)N[C@@H](Cc1ccc(NC(=O)c2c(Cl)cccc2Cl)cc1)C(=O)O` registered a logD of -0.13.

Consider `COc1ccccc1C(=O)NCC12CC3CC(CC(C3)C1)C2`, for which the logD came out at 4.43.

With `COc1ccc(Cl)c(C(=O)NCC23CC4CC(CC(C4)C2)C3)c1`, the logD amounted to 4.39.

`O=C(NCC12CC3CC(CC(C3)C1)C2)c1ccccc1Br` showed a logD of 4.15.

The compound `N=C(N)Nc1ccc(Cl)c(Cl)c1` registered a logD of -0.31.

Compound `FC(F)(F)c1cc(COCC(c2cccc(Cl)c2)N2CCNCC2)cc(C(F)(F)F)c1` (stereo not drawn) displayed a logD of 4.2.

`O=C(NCC12CC3CC(CC(C3)C1)C2)c1cccc(Cl)c1Cl` had a logD of 4.37.

`CC[C@H](NC(=O)c1c(CN(C)C)c(-c2ccccc2)nc2ccccc12)c1ccccc1` showed a logD of 4.18.

In the case of `Cc1oc(S(C)(=O)=O)cc1-c1c2c(=O)n(C)c(=O)n(CC3CC3)c2nn1Cc1cn(C)c2ccc(Cl)cc12`, the logD was found to be 4.48.

Compound `Fc1ccc(CNc2ncc(Br)c(Nc3cc(C4CC4)[nH]n3)n2)cc1` showed a logD of 4.28.

Consider `COc1cccc(NC(=O)c2cccc(Cc3c(C)nn(CCO)c3-c3ccccc3)c2)c1`, for which the logD worked out at 4.29.

`Cc1nc(NC(=N)N)nc2ccccc12`: the logD was -0.49.

In turn, `Nc1nc(N)c2nc(CO)cnc2n1` returned a logD of -0.45.

Take `COc1cccc(OC)c1-c1ccc(C[C@H](NC(=O)c2c(Cl)cccc2Cl)C(=O)O)cc1`: the logD is -0.27.
